Laboratory results: ChEMBL document CHEMBL3046015, “Structure-dependent phytotoxicity of catechins and other flavonoids: flavonoid conversions by cell-free protein extracts of Centaurea maculosa (spotted knapweed) roots” (J Agric Food Chem, 2003)
The source made the active and inactive calls. No cut-off for these calls is given here.

What was measured:
Centaurea diffusa [1] = assay: Phytotoxicity in Centaurea diffusa assessed as inhibition of seed germination at 250 ug/mL measured on day 14 relative to untreated control; format: functional, organism-based
Centaurea maculosa [2] = assay: Phytotoxicity in Centaurea maculosa assessed as inhibition of shoot differentiation at 250 ug/mL measured on day 14 relative to untreated control; format: functional, organism-based
Bassia scoparia [3] = assay: Phytotoxicity in Bassia scoparia assessed as inhibition of root differentiation at 250 ug/mL measured on day 14 relative to untreated control; format: functional, organism-based
Bassia scoparia [4] = assay: Phytotoxicity in Bassia scoparia assessed as inhibition of shoot differentiation at 250 ug/mL measured on day 14 relative to untreated control; format: functional, organism-based
[5] = test system: Linaria genistifolia subsp. dalmatica; assay: Phytotoxicity in Linaria genistifolia subsp. dalmatica assessed as inhibition of seed germination at 250 ug/mL measured on day 14 relative to untreated control; format: functional, organism-based
[6] = test system: Linaria genistifolia subsp. dalmatica; assay: Phytotoxicity in Linaria genistifolia subsp. dalmatica assessed as inhibition of root differentiation at 250 ug/mL measured on day 14 relative to untreated control; format: functional, organism-based
[7] = test system: Linaria genistifolia subsp. dalmatica; assay: Phytotoxicity in Linaria genistifolia subsp. dalmatica assessed as inhibition of shoot differentiation at 250 ug/mL measured on day 14 relative to untreated control; format: functional, organism-based
Triticum aestivum [8] = assay: Phytotoxicity in Triticum aestivum (wheat) assessed as inhibition of seed germination at 250 ug/mL measured on day 14 relative to untreated control; format: organism-based; details: in vivo
Centaurea maculosa [9] = assay: Phytotoxicity in Centaurea maculosa assessed as inhibition of seed germination at 250 ug/mL measured on day 14 relative to untreated control; format: functional, organism-based
Centaurea diffusa [10] = assay: Phytotoxicity in Centaurea diffusa assessed as inhibition of root differentiation at 250 ug/mL measured on day 14 relative to untreated control; format: functional, organism-based
Centaurea maculosa [11] = assay: Phytotoxicity in Centaurea maculosa assessed as inhibition of root differentiation at 250 ug/mL measured on day 14 relative to untreated control; format: functional, organism-based
Centaurea diffusa [12] = assay: Phytotoxicity in Centaurea diffusa assessed as inhibition of shoot differentiation at 250 ug/mL measured on day 14 relative to untreated control; format: functional, organism-based
Bassia scoparia [13] = assay: Phytotoxicity in Bassia scoparia assessed as inhibition of seed germination at 250 ug/mL measured on day 14 relative to untreated control; format: functional, organism-based
Solanum lycopersicum [14] = assay: Phytotoxicity in Solanum lycopersicum (tomato) assessed as increase in mortality at 50 ug/mL measured on day 14 relative to untreated control; format: organism-based; details: in vivo
[15] = test system: Linaria genistifolia subsp. dalmatica; assay: Phytotoxicity in Linaria genistifolia subsp. dalmatica assessed as increase in mortality at 50 ug/mL measured on day 14 relative to untreated control; format: functional, organism-based
Centaurea maculosa [16] = assay: Phytotoxicity in Centaurea maculosa assessed as inhibition of seed germination at 50 ug/mL measured on day 14 relative to untreated control; format: functional, organism-based
Bassia scoparia [17] = assay: Phytotoxicity in Bassia scoparia assessed as increase in mortality at 50 ug/mL measured on day 14 relative to untreated control; format: functional, organism-based
Bassia scoparia [18] = assay: Phytotoxicity in Bassia scoparia assessed as inhibition of seed germination at 50 ug/mL measured on day 14 relative to untreated control; format: functional, organism-based
Centaurea maculosa [19] = assay: Phytotoxicity in Centaurea maculosa assessed as increase in mortality at 50 ug/mL measured on day 14 relative to untreated control; format: functional, organism-based
Triticum aestivum [20] = assay: Phytotoxicity in Triticum aestivum (wheat) assessed as increase in mortality at 50 ug/mL measured on day 14 relative to untreated control; format: functional, organism-based
Centaurea diffusa [21] = assay: Phytotoxicity in Centaurea diffusa assessed as increase in mortality at 50 ug/mL measured on day 14 relative to untreated control; format: functional, organism-based
Triticum aestivum [22] = assay: Phytotoxicity in Triticum aestivum (wheat) assessed as inhibition of seed germination at 50 ug/mL measured on day 14 relative to untreated control; format: functional, organism-based
Centaurea diffusa [23] = assay: Phytotoxicity in Centaurea diffusa assessed as inhibition of seed germination at 50 ug/mL measured on day 14 relative to untreated control; format: functional, organism-based
[24] = test system: Linaria genistifolia subsp. dalmatica; assay: Phytotoxicity in Linaria genistifolia subsp. dalmatica assessed as inhibition of seed germination at 50 ug/mL measured on day 14 relative to untreated control; format: functional, organism-based
Centaurea diffusa [25] = assay: Phytotoxicity in Centaurea diffusa assessed as increase in mortality at 250 ug/mL measured on day 14 relative to untreated control; format: functional, organism-based
Triticum aestivum [26] = assay: Phytotoxicity in Triticum aestivum (wheat) assessed as increase in mortality at 250 ug/mL measured on day 14 relative to untreated control; format: functional, organism-based
[27] = test system: Linaria genistifolia subsp. dalmatica; assay: Phytotoxicity in Linaria genistifolia subsp. dalmatica assessed as increase in mortality at 250 ug/mL measured on day 14 relative to untreated control; format: functional, organism-based
Bassia scoparia [28] = assay: Phytotoxicity in Bassia scoparia assessed as increase in mortality at 250 ug/mL measured on day 14 relative to untreated control; format: functional, organism-based
Solanum lycopersicum [29] = assay: Phytotoxicity in Solanum lycopersicum (tomato) assessed as increase in mortality at 250 ug/mL measured on day 14 relative to untreated control; format: organism-based; details: in vivo
Centaurea maculosa [30] = assay: Phytotoxicity in Centaurea maculosa assessed as increase in mortality at 250 ug/mL measured on day 14 relative to untreated control; format: functional, organism-based
Arabidopsis thaliana = assay: Phytotoxicity in Arabidopsis thaliana assessed as increase in mortality at 250 ug/mL measured on day 14 relative to untreated control; format: organism-based; details: in vivo

## O=C1C[C@@H](c2ccc(O)cc2)Oc2cc(O)cc(O)c21 [NARINGENIN]
Centaurea diffusa [1]
  inhibition: inactive
Centaurea maculosa [2]
  inhibition: inactive
Bassia scoparia [3]
  inhibition: inactive
Bassia scoparia [4]
  inhibition: inactive
[5]
  inhibition: inactive
[6]
  inhibition: inactive
[7]
  inhibition: inactive
Triticum aestivum [8]
  inhibition (INH): Non-toxic
Centaurea maculosa [9]
  inhibition: inactive
Centaurea diffusa [10]
  inhibition: inactive
Centaurea maculosa [11]
  inhibition: inactive
Centaurea diffusa [12]
  inhibition: inactive
Bassia scoparia [13]
  inhibition: inactive

## Oc1cc(O)c2c(c1)O[C@@H](c1ccc(O)c(O)c1)[C@@H](O)C2 [(+)-EPICATECHIN]
Centaurea diffusa [1]
  inhibition: Active
Centaurea maculosa [2]
  inhibition: Active
Bassia scoparia [3]
  inhibition: Active
Bassia scoparia [4]
  inhibition: Active
[5]
  inhibition: Active
[6]
  inhibition: Active
[7]
  inhibition: Active
Triticum aestivum [8]
  inhibition (INH): Toxic
Centaurea maculosa [9]
  inhibition: Active
Centaurea diffusa [10]
  inhibition: Active
Centaurea maculosa [11]
  inhibition: Active
Centaurea diffusa [12]
  inhibition: Active
Bassia scoparia [13]
  inhibition: Active

## Oc1cc(O)c2c(c1)O[C@H](c1ccc(O)c(O)c1)[C@H](O)C2 [(-)-EPICATECHIN]
Centaurea diffusa [1]
  inhibition: inactive
Centaurea maculosa [2]
  inhibition: inactive
Bassia scoparia [3]
  inhibition: inactive
Bassia scoparia [4]
  inhibition: inactive
[5]
  inhibition: inactive
[6]
  inhibition: inactive
[7]
  inhibition: inactive
Triticum aestivum [8]
  inhibition (INH): Non-toxic
Centaurea maculosa [9]
  inhibition: inactive
Centaurea diffusa [10]
  inhibition: inactive
Centaurea maculosa [11]
  inhibition: inactive
Centaurea diffusa [12]
  inhibition: inactive
Bassia scoparia [13]
  inhibition: inactive

## O=c1c(O)c(-c2ccc(O)c(O)c2)oc2cc(O)cc(O)c12 [QUERCETIN]
Centaurea diffusa [1]
  inhibition: inactive
Centaurea maculosa [2]
  inhibition: inactive
Bassia scoparia [3]
  inhibition: inactive
Bassia scoparia [4]
  inhibition: inactive
[5]
  inhibition: inactive
[6]
  inhibition: inactive
[7]
  inhibition: inactive
Triticum aestivum [8]
  inhibition (INH): Non-toxic
Centaurea maculosa [9]
  inhibition: inactive
Centaurea diffusa [10]
  inhibition: inactive
Centaurea maculosa [11]
  inhibition: inactive
Centaurea diffusa [12]
  inhibition: inactive
Bassia scoparia [13]
  inhibition: inactive

## Oc1cc(O)c2c(c1)O[C@@H](c1ccc(O)c(O)c1)[C@H](O)C2 [(-)-CATECHIN]
Solanum lycopersicum [14]
  inhibition (INH): Toxic
[15]
  inhibition: Active
Centaurea maculosa [16]
  inhibition: inactive
Bassia scoparia [17]
  inhibition: Active
Bassia scoparia [18]
  inhibition: Active
Centaurea maculosa [19]
  inhibition: inactive
Triticum aestivum [20]
  inhibition: Active
Centaurea diffusa [21]
  inhibition: Active
Triticum aestivum [22]
  inhibition: Active
Centaurea diffusa [23]
  inhibition: Active
[24]
  inhibition: Active

## O=C1c2c(O)cc(O)cc2OC(c2ccc(O)c(O)c2)C1O (racemic) [TAXIFOLIN]
Centaurea diffusa [1]
  inhibition: Active
Centaurea diffusa [25]
  inhibition: Active
Triticum aestivum [26]
  inhibition: Active
[27]
  inhibition: Active
[5]
  inhibition: Active
Bassia scoparia [28]
  inhibition: Active
Solanum lycopersicum [29]
  inhibition (INH): Toxic
Triticum aestivum [8]
  inhibition (INH): Toxic
Centaurea maculosa [9]
  inhibition: inactive
Centaurea maculosa [30]
  inhibition: inactive
Arabidopsis thaliana
  inhibition (INH): Toxic
Bassia scoparia [13]
  inhibition: Active

## O=c1c(O)c(-c2ccc(O)cc2)oc2cc(O)cc(O)c12 [KAEMPFEROL]
Centaurea diffusa [1]
  inhibition: Active
Centaurea diffusa [25]
  inhibition: Active
Triticum aestivum [26]
  inhibition: Active
[27]
  inhibition: Active
[5]
  inhibition: Active
Bassia scoparia [28]
  inhibition: Active
Solanum lycopersicum [29]
  inhibition (INH): Toxic
Triticum aestivum [8]
  inhibition (INH): Toxic
Centaurea maculosa [9]
  inhibition: inactive
Centaurea maculosa [30]
  inhibition: inactive
Arabidopsis thaliana
  inhibition (INH): Toxic
Bassia scoparia [13]
  inhibition: Active
